Patent US20250195556A1, “COMPOSITIONS, KITS, AND METHODS TO INDUCE ACQUIRED CYTORESISTANCE USING STRESS PROTEIN INDUCERS” (FRED HUTCHINSON CANCER RESEARCH CENTER, priority 2014, published 2025)

How the values were obtained:
[1] = tested on: Male CD-1 mice; experiment: Maleate model of AKI (FeS, SnPP, FeS+SnPP); assay type: in vivo; settings: 1 mg FeS or 1 μmole SnPP IV alone 18 hrs before maleate
Description: (§1) Methods. Male CD-1 mice (25-40 grams) Charles River, Wilmington, MA) were used for all experiments. They were housed under standard vivarium conditions with free food and water access. All experiments were approved by the Fred Hutchinson Cancer Research Center IACUC in accordance with NIH guidelines.
Effects of Fe sucrose (FeS)/tin protoporphyrin (SnPP) on AKI severity. Maleate model of AKI. When injected into rodents, maleate undergoes relatively selective proximal tubule cell uptake via organic anion transporters. Once intracellular accumulation occurs, maleate is a preferred substrate for succinyl-CoA: 3-oxoacid CoA transferase. […] Ample levels of CoA are essential for fatty acid “activation”, allowing for their subsequent metabolism through the Krebs cycle, yielding ATP. In the absence of this process, proximal tubule ATP depletion and cell injury result. Additionally, maleate conjugates the sulfhydryl group of glutathione (GSH), culminating in GSH depletion and potential oxidant tubular stress.
The following experiment tested whether FeS, SnPP or combined FeS+SnPP can mitigate this form of acute kidney injury (AKI). […] The severity of kidney injury was assessed by determining plasma blood urea nitrogen (BUN) and plasma creatinine (PCr) concentrations.

[2] = tested on: HO-1; experiment: Renal cortical HO-1 mRNA and protein after FeS, SnPP or B12; assay type: in vivo, mice; settings: for HO-1 protein increases (FIG. 21): within 4 hrs and persists for 18 hrs of IV injection
Description: as §1
Effects of FeS, SnPP, and B12 on renal cortical induction of heme oxygenase 1 (HO-1). The following experiments assessed the effects of FeS, SnPP, and B12 on the possible induction of the cytoprotective protein HO-1. To this end, mice were injected with each of these agents, as noted above. Either 4 or 18 hrs later, they were anesthetized and the kidneys were removed through a midline abdominal incision. The renal cortices were dissected on ice and then extracted for protein and mRNA. The samples were then assayed for HO-1 protein by ELISA, and HO-1 mRNA by RT-PCR, factored by GAPDH levels. Five normal mice provided control values.

Substance	Severity of maleate-induced renal injury (BUN, PCr) [1]	Renal cortical HO-1 protein levels ([2]; 18 hr time point)	HO-1 protein increases (FIG. 21) [2]
iron sucrose [FeS]	Neither SnPP alone nor FeS alone significantly altered	remained elevated	marked HO-1 protein increases
cyanocobalamin [B12]	–	–	marked HO-1 protein increases
